Experimental data from a melting point compilation (Tetko et al.).

## O=C(O)C=Cc1cc(Cl)ccc1OCc1ccccc1Br
  melting point: 207 to 209 °C

## CC1CCNc2ccccc2N1 (configuration not stated)
  melting point: 96 to 98 °C

## Cc1oncc1C(=O)Nc1ccc(C(=O)O)cc1
  melting point: 229 to 231 °C

## CC(N)c1ccc(NC(=O)c2ccncc2)cc1 (configuration not stated)
  melting point: 159 to 161 °C

## COC(=O)C(N)c1ccc(F)cc1F (configuration not stated)
  melting point: 39 to 41 °C

## Cc1cccc(C2(C(=O)O)CCCC2)c1
  melting point: 156 to 158 °C

## COc1ccc(S(=O)(=O)Cl)c(C)c1F
  melting point: 90 to 92 °C

## Sc1ccc(-c2ccccc2)cc1
  melting point: 106 to 108 °C

## Clc1nccc(N2CCCC2)n1
  melting point: 121 to 123 °C

## N#Cc1ccc(C(=O)NNC(=O)CCl)cc1
  melting point: 185 to 187 °C

## O=C(c1cccnc1)c1ccc(F)cc1F
  melting point: 54 to 56 °C

## Nc1nc(-c2ccccc2)c(-c2ccccc2)s1
  melting point: 181 to 183 °C

## C/C(=N\O)c1sc(C)nc1C
  melting point: 131 to 133 °C

## O=C(O)CN(CCCCCCN(CC(=O)O)CC(=O)O)CC(=O)O
  melting point: 237 to 241 °C

## Nc1nnc(SCc2ccccc2)[nH]1
  melting point: 99 to 101 °C

## CCOC(=O)c1ccn(-c2ccc(N)cc2)n1
  melting point: 97 to 99 °C

## Cc1cc(=O)n(CC(=O)NC(C)C)c(C)c1C(=O)O
  melting point: 229 to 231 °C

## Cc1cc(C(=O)CCl)c(C)n1-c1cc(Cl)cc(Cl)c1
  melting point: 113 to 115 °C

## CCCS(=O)(=O)N1CCCCC1C(=O)O (configuration not stated)
  melting point: 84 to 86 °C

## OCCOc1ccccc1C(F)(F)F
  melting point: 74 to 76 °C

## CCOc1ccc(N)c(C(N)=O)c1
  melting point: 148 to 150 °C

## Cc1c(NC(=O)C(C)Cl)cccc1[N+](=O)[O-] (configuration not stated)
  melting point: 120 to 122 °C

## CNC(=O)c1cnc(C)[nH]c1=O
  melting point: 319 to 321 °C

## N#CCC(=O)N(CC(F)(F)F)C1CC1
  melting point: 69 to 71 °C

## NC(CN1CCCC1=O)c1ccccc1 (configuration not stated)
  melting point: 99 to 101 °C

## O=C(NCc1ccccc1)c1cc(Cl)ccn1
  melting point: 66 to 68 °C

## O=C(O)c1cccc2[nH]ccc12
  melting point: 213 to 214 °C

## O=C1CCC(=O)N1CCBr
  melting point: 53 to 55 °C

## CN(CC(=O)O)c1cnccn1
  melting point: 170 to 172 °C

## COc1cccc(C(=O)O)c1OC(F)F
  melting point: 152 to 154 °C

## O=C(O)c1cc(-c2ccccc2)nc2cccc(Br)c12
  melting point: 235 to 237 °C

## NS(=O)(=O)CCOc1ccccc1
  melting point: 102 to 104 °C

## OCc1ncc(-c2ccc(F)cc2)o1
  melting point: 81 to 83 °C

## CC(C)(C)c1ccc2c(c1)C(O)CC2 (configuration not stated)
  melting point: 73 to 75 °C

## NC(=O)NC1CCCc2ccccc21 (configuration not stated)
  melting point: 204 to 206 °C

## Cc1cc(C)cc(C2(C(=O)O)CCC2)c1
  melting point: 132 to 134 °C

## O=C(O)CCc1ccncc1
  melting point: 209 to 211 °C

## Clc1cncc(-n2cncn2)n1
  melting point: 109 to 111 °C

## Cc1ccc2[nH]c3c(c2c1)CC(C)(C)CC3
  melting point: 114 to 116 °C

## C/C=C/c1cc(C(=O)O)cc(OC)c1OC
  melting point: 142 to 144 °C

## CC(C)(C)c1ccc(N)c(C(=O)O)c1
  melting point: 144 to 146 °C

## Fc1ccc(CBr)c2ncccc12
  melting point: 94 to 96 °C

## Cc1ccc2c(CC(=O)O)coc2c1
  melting point: 140 to 142 °C

## COc1cc(C=O)cc2sc(=O)oc12
  melting point: 160 to 162 °C

## Cn1cc(CC(=O)O)cn1
  melting point: 121 to 123 °C

## N#Cc1ccc(C=CC(=O)O)cc1
  melting point: 250 to 252 °C

## O=[N+]([O-])c1c[nH]ccc1=NCC1CCCO1 (configuration not stated)
  melting point: 72 to 74 °C

## CCn1c(=O)c(C(=O)CCl)c(N)n(Cc2ccccc2)c1=O
  melting point: 115 to 117 °C

## CC(=O)Nc1sc(C)c(C)c1C(=O)O
  melting point: 217 to 219 °C

## O=C(O)CNC(=O)c1cccc(O)c1
  melting point: 174 to 176 °C

## CCOC(=O)c1sc2nc(N3CCOCC3)[nH]c(=O)c2c1C
  melting point: 296 to 298 °C

## O=C(O)Cc1cnn(-c2ccccc2)c1
  melting point: 107 to 109 °C

## Nc1ccc(=O)n(Cc2ccc(Cl)c(Cl)c2)c1
  melting point: 131 to 133 °C

## O=C(N/N=C/c1c(O)ccc2ccccc12)c1ccncc1
  melting point: 266 to 268 °C

## CC1CC(N)=NN1Cc1ccccc1 (configuration not stated)
  melting point: 159 to 161 °C

## O=C(CO)NCc1ccc(F)cc1
  melting point: 102 to 104 °C

## Cc1ccc(S(=O)(=O)NC(C(=O)O)C(C)C)cc1 (configuration not stated)
  melting point: 167 to 169 °C
